According to US8058417B2, “Biosynthetic pathway and genes required for tropodithietic acid biosynthesis in silicibacter TM1040” (priority 2006, dated 2011):
≈ marks a conversion by molar mass, not a printed value.

What was measured:
V. anguillarium [1] = test: Regrowth of V. anguillarium in fresh nutrient broth after TDA exposure (bactericidal test); assay type: cell-based, Vibrio anguillarium; settings: 5 ug per ml (3x MIC) for 90 minutes, FIG. 13
Protocol: FIG. 13 is a graph showing the bactericidal character of TDA against Vibrio anguillarum, illustrating the results using control (squares; buffer only), control 0.001 (circles), TDA (triangles), and TDA 0.001 (inverted triangles), as described in Example 10. V. anguillarium was exposed to 5 ug TDS per ml (3× MIC) for 90 minutes, after which the cells were washed and suspended in fresh nutrient broth. […] The results, as set forth in the graph of FIG. 13 indicate that the activity of TDA is bactericidal for this bacterial species, not simply bacteristatic.

V. anguillarium [2] = test: Swimming (motility) of V. anguillarium exposed to TDA; assay type: cell-based, Vibrio anguillarium; settings: exposed to 5 ug TDA per ml (ca. 3x MIC)
Source text: It is unlikely that the mechanism of action of TDS involves inhibition of protein, DNA or RNA synthesis, transcription, or translation, all of which would require more time to inhibit.

[3] = system: Mycobacterium tuberculosis strain H37Rv; test: Minimal Inhibitory Concentration (MIC) of TDA against Mycobacterium tuberculosis; assay type: cell-based
Source text: Against Mycobacterium tuberculosis strain H37Rv

[4] = system: Methicillin-resistant Staphylococcus aureus (MRSA) strain USA300; test: Minimal Inhibitory Concentration (MIC) of TDA against MRSA; assay type: cell-based
Source text: Against Methicillin-resistant Staphylococcus aureus (MRSA) strain USA300

Vibrio anguillarium = test: Minimal Inhibitory Concentration (MIC) of TDA against Vibrio anguillarium; assay type: cell-based; settings: FIG. 12
Source text: FIG. 12 is a graph showing the efficacy of TDA against Vibrio anguillarum, as described in Example 10.

## O=C(O)c1c(=O)cccc2ssc12 [TDA, tropodithietic acid]
V. anguillarium [1]
  Character of activity (bactericidal vs bacteristatic): bactericidal
V. anguillarium [1]; control cells exposed to buffer grew normally
  Growth of exposed cells after washing and suspension in fresh nutrient broth: failed to grow
V. anguillarium [2]
  Time until V. anguillarium stopped swimming: ≤ 70 s
[3]
  Result in words: killing of M. tuberculosis: kills
[3]; M. tuberculosis strain H37Rv
  MIC: 7.8 µg/mL (≈ 36.7 µM)
[4]
  MIC: 40 µg/mL (≈ 188 µM)
  Result in words: killing of MRSA: kills
Vibrio anguillarium
  MIC: 1.5 µg/mL (≈ 7.07 µM)
  Result in words: killing of V. anguillarium: kills
